# How the values were obtained:
# Assay type in all cases: cell-based
# C2C12 myoblasts [1] = assay: PA-induced senescence in C2C12 myoblasts (immunoblot of senescence markers, EdU incorporation); details: C2C12 cells
# Description: (§1) Cells were washed briefly with ice-cold 1×PBS, scraped in 400 μL T-PER lysis buffer (ThermoFisher) supplemented with 0.1 mM phenylmethylsulphonyl fluoride (PMSF) and protease/phosphatase inhibitor cocktail tablet (ThermoFisher). Pulverised tissue samples (20-30 mg) were lysed in the same buffer accelerated by sonication and passing through a 21 G needle. To pellet any debris, lysates were centrifuged at 10,000 g for 10 minutes at 4° C., with the supernatant transferred to fresh tubes. Protein concentrations were determined with Bradford assay (Biorad) and lysates were diluted to equal concentration with lysis buffer. Protein lysates were then mixed with Laemmli buffer, vortexed and heated to 95° C. for 5 min. Equal amounts of protein lysates in parallel with protein molecular weight marker (ThermoFisher) were loaded onto pre-cast polyacrylamide gels (Nupage 10 or 12% Bis Tris gel, Novex, Invitrogen) and separated by electrophoresis at 200V for 1 hour. Proteins were transferred onto polyvinylidene difluoride (PVDF) membrane (Invitrogen) using an electrophoretic transfer cell (Mini Trans-Blot, Bio-Rad) in ice-cold transfer buffer (48 mM Tris base, […], 0.1% SDS, 20% methanol (v/v)) at 300 mA for 2 hours. Membranes were blocked in 1× skimmed milk (ThermoFisher) for 1 hour at room temperature, followed by overnight incubation with primary antibody diluted in blocking buffer at 4° C. Next day membranes were washed, followed by 60 minutes incubation in the corresponding horseradish peroxidase (HRP)-conjugated secondary antibody diluted 1:2000-10000 in blocking buffer (all Abcam). Blots were developed using enhanced chemiluminescence (ECL) reagents (normal, Prime & Select) and digital images were acquired using an imaging system (Azure Biosystems). Membranes were usually stripped of antibodies and reprobed with an antibody targeting a protein serving as loading control (α-actinin for hearts & β-actin for all others). For this procedure, membranes were placed in Guanidine-HCl-based stripping solution (6M Guanidine-HCl, 0.2% Nonidet P-40, 0.1M β-mercaptoethanol, 20 mM Tris-HCl, pH 7.5 and 100 mM 2-mercaptoethanol) and incubated for 10 minutes at room temperature with gentle agitation, followed by extensive washing and re-blocking.^5
# (§2) C2C12 (ATCC® CRL-1772™) myoblasts maintained in DMEM supplemented with L-glutamine (2 mM), penicillin/streptomycin (1%) and 5% fetal bovine serum (FBS) were seeded either at a density of 5×10^4 cells (<50%) per well in 24-well plates or 10^4 cells in 4-well chamber slides. Cells were with L-phenylalanine (1-10 mM)+BH4 (10 μM) and incubation with increasing concentrations of N-acetylcysteine (0.5, 2.5, 5 mM) vs. vehicle overnight as indicated. Cells were analysed for oxidative stress with MitoSOX™ (mitochondrial superoxide; 5 μM, ThermoFisher Scientific), CellROX™ (cytosolic superoxide; 5 μM, ThermoFisher Scientific), gene or protein expression, or various metabolites (see below).
# C2C12 myoblasts [2] = assay: Oxidative stress in C2C12 cells (CellROX cytosolic superoxide, MitoSOX mitochondrial superoxide, GSH)
# Description: as §2
# (§3) Levels of reduced glutathione (GSH; ThermoFisher), phenylalanine (BioVision) and tyrosine (BioVision) were determined from cells or plasma, with respective agents/kits following the manufacturer's recommendations. Specifically, GSH levels were estimated with the aid of ThiolTracker™ Violet fluorescent probe (ThermoFisher). Plasma and liver phenylalanine levels were determined using an enzyme-coupled, fluorometric method (BioVision). Briefly, samples were deproteinized via trichloroacetate precipitation, neutralised, tyrosinase-treated (to remove tyrosine that may interfere) and diluted to fit in the standard curve. Fluorescence reading took place at 587 nm after excitation at 535 nm. Levels of tyrosine in cells or conditioned media were determined after deproteinization using 10 kDa cut-off columns with an enzyme-coupled, colorimetric method with reading at 491 nm (BioVision).
# AML-12 hepatocytes = assay: AML-12 hepatocytes: p21, Pah immunoblot and tyrosine production; details: Nutlin3a vs. vehicle
# Description: as §1
# AML12 cells (ATCC® CRL-2254™) were maintained in DMEM/F-12 (1:1) culture media supplemented with 10% FBS, 10 μg/ml insulin, 5.5 μg/ml transferrin, 5 ng/ml selenium, 40 ng/ml dexamethasone and 1% penicillin/streptomycin. Cells were sub-cultivated from subconfluent flasks with a ratio from 1:4 to 1:8. For WB analysis, cells were plated on 6-well plates and harvested at 80-90% of confluence. AML12 cells were transfected with indicated siRNA (Table 2) at 80% confluence using Lipofectamine RNAiMAX Transfection Reagent (ThermoFischer Scientific 13778030) following the manufacturer's instructions. Transfection efficiency was constantly checked using BLOCK-IT Alexa Fluor Red Fluorescent Control (ThermoFischer Scientific 14750100).
# as §3
structure (smiles),measurement,setting,value
"N[C@@H](Cc1ccc(Cl)cc1)C(=O)O (racemic) [4-CPA, 4-chlorophenylalanine]",BH4 antagonism of PA-dependent senescence,"C2C12 myoblasts [1]; PA 5 mM + BH4 10 μM + 4-CPA 1.5 mM, FIG. 1c-d",reversed
same,BH4 rescue of superoxide levels,"C2C12 myoblasts [2]; PA + BH4 + 4-CPA, FIG. 1f",prevented
"CC(=O)N[C@@H](CS)C(=O)O [NAC, N-acetylcysteine]",p21 induction by PA,"C2C12 myoblasts [1]; PA + N-acetylcysteine (0.5, 2.5, 5 mM), data not shown",failed to prevent
same,cytosolic superoxide levels under PA treatment,"C2C12 myoblasts [2]; PA plus co-treatment (BH4 10 μM or NAC), FIG. 1f",restored normal
same,reduced glutathione (GSH) levels under PA treatment,"C2C12 myoblasts [2]; PA plus co-treatment, data not shown",restored normal
COc1ccc(C2=N[C@@H](c3ccc(Cl)cc3)[C@@H](c3ccc(Cl)cc3)N2C(=O)N2CCNC(=O)C2)c(OC(C)C)c1 [Nutlin3a],Pah,AML-12 hepatocytes; FIG. 4o,downregulated
same,hepatocyte senescence (i.e. p-p53 and p21),AML-12 hepatocytes; FIG. 4o,induced
same,tyrosine production (tyrosine levels in media),AML-12 hepatocytes; FIG. 4p,depressed

# — patent US20220268782A1, “METHODS FOR PREDICTING AND TREATING CARDIAC DYSFUNCTION” (INSERM (INSTITUT NATIONAL DE LA SANTÉ EAT DE LA RECHERCHE …, priority 2019, published 2022)
